Data reported in patent US5700804A, “Pharmaceutical compounds” (Xenova Limited, priority 1992, dated 1997).
Counter-ions that a name gives are not always drawn.

Molecular target: PAI-1 (Homo sapiens, UniProt P05121)
Assay: PAI chromogenic substrate assay (first S2251 assay, tPA/plasminogen system)
Assay type: biochemical
How it was run: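 Compound preincubated with PAI-1, then added to a tPA/plasminogen system; residual tPA activity generates plasmin, which cleaves chromogenic substrate S2251, releasing p-nitroaniline read at 405 nm.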

PAI-1, sequence (P05121 24-402): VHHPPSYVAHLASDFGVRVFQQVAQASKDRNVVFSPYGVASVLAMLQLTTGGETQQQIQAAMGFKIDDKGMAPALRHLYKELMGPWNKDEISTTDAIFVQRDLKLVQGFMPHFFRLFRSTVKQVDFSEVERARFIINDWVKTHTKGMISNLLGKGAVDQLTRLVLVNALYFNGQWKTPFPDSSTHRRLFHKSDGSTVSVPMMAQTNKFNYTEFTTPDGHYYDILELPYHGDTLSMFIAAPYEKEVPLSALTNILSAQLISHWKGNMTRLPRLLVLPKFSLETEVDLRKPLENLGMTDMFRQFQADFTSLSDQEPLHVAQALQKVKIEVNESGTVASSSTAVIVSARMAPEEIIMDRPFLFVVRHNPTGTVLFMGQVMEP

Row | Inhibition of PAI-1 in the first S2251 chromogenic substrate assay (Concentration 6.25 μm) | Inhibition of PAI-1 in the first S2251 chromogenic substrate assay (Concentration 12.5 μm) | Inhibition of PAI-1 in the first S2251 chromogenic substrate assay (Concentration 25 μm) | Inhibition of PAI-1 in the first S2251 chromogenic substrate assay (Concentration 50 μm) | Inhibition of PAI-1 in the first S2251 chromogenic substrate assay (Concentration 100 μm) | Inhibition of PAI-1 in the first S2251 chromogenic substrate assay (Concentration 2.5 μm) | Inhibition of PAI-1 in the first S2251 chromogenic substrate assay (Concentration 5 μm) | Inhibition of PAI-1 in the first S2251 chromogenic substrate assay (Concentration 10 μm) | Inhibition of PAI-1 in the first S2251 chromogenic substrate assay (Concentration 20 μm) | Inhibition of PAI-1 in the first S2251 chromogenic substrate assay (Concentration 40 μm) | Structure (SMILES)
1 | 17% | 12% | 38% | 44% | 86% |  |  |  |  |  | COc1ccc(/C=c2\[nH]c(=O)/c(=C/c3ccc(NC(C)=O)cc3)[nH]c2=O)cc1OC [Compound 92]
2 | 2% | 7% | 39% | 68% | 91% |  |  |  |  |  | COC(=O)COc1ccc(/C=c2\[nH]c(=O)/c(=C/c3ccccc3)[nH]c2=O)cc1 [Compound 93, 4-[(3Z,6Z)-6-Benzylidene-2,5-dioxopiperazin-3-ylidene]methylphenoxyacetic acid, methyl ester]
3 | 43% | 76% | 83% | 62% | 31% |  |  |  |  |  | COC(=O)CCCC(=O)NCc1ccc(/C=c2\[nH]c(=O)/c(=C/c3ccccc3)[nH]c2=O)cc1 [Compound 94, 4-(4-[(3Z,6Z)-6-Benzylidene-2,5-dioxopiperazin-3-ylidene]methylbenzylcarbamoyl) butanoic acid, methyl ester]
4 | 10% | 16% | 45% | 71% | 69% |  |  |  |  |  | CCOC(=O)CCCCC(=O)NCc1ccc(/C=c2\[nH]c(=O)/c(=C/c3ccccc3)[nH]c2=O)cc1 [Compound 95]
5 | 5% | 29% | 47% | 75% | 77% |  |  |  |  |  | COC(=O)CCCCOc1ccc(/C=c2\[nH]c(=O)/c(=C/c3ccccc3)[nH]c2=O)cc1 [Compound 96, 5-[4-((3Z,6Z)-6-Benzylidene-2,5-dioxopiperazin-3-ylidene)methylphenoxy]pentanoic acid, methyl ester]
6 | 0% | 0% | 73% | 24% | 0% |  |  |  |  |  | O=C(O)CCCCOc1ccc(/C=c2\[nH]c(=O)/c(=C/c3ccccc3)[nH]c2=O)cc1 [Compound 97, 5-[4-((3Z,6Z)-6-Benzylidene-2,5-dioxopiperazin-3-ylidene)methylphenoxy]pentanoic acid]
7 | 4% | 67% | 74% | 71% | 72% |  |  |  |  |  | CN(C)CCCOc1ccc(/C=c2\[nH]c(=O)/c(=C/c3ccccc3)[nH]c2=O)cc1 [Compound 98]
8 |  |  |  |  |  | 0% | 0% | 17% | 48% | 68% | CN(C)CCOc1ccc(/C=c2\[nH]c(=O)/c(=C/c3ccccc3)[nH]c2=O)cc1 [Compound 99, (3Z,6Z)-6-Benzylidene-3-(4-(2-N,N-dimethylaminoethoxy)benzylidene)-2,5-piperazinedione, hydrochloride]
